Laboratory results reported in patent publication US20230072683A1, “PYRIDO-PYRIMIDIN DERIVATIVES AND PHARMACEUTICAL COMPOSITION, FOR USE IN PREVENTING OR TREATING PI3 KINASE RELATED DISEASES, COMPRISING SAME AS ACTIVE INGREDIENT” (BORYUNG PHARMACEUTICAL CO., LTD, priority 2019, published 2023).
Where two headings read alike, the source gives them in different places.

Key:
DNA-PK(h) = DNA-PK(h) (Homo sapiens, UniProt P78527); experiment: Evaluation of inhibitory activity against DNA-PK (HTRF kinase assay, GST-cMyc-p53 substrate); type: biochemical; details: for inhibition at 0.1 µM: read-out: EXP_VALUE(% Inhibition) DNA-PK(h) 0.1 μM; for inhibition at 0.01 µM: compound concentration 0.01 μM, read-out: EXP_VALUE(% Inhibition) DNA-PK(h) 0.01 μM
Method in brief: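 Human DNA-PK with 50 μM GST-cMyc-p53 substrate; reaction started with Mg/ATP, run 30 min at room temperature, stopped with EDTA. Phospho-Ser15 p53 detected by HTRF (Eu anti-phospho-Ser15, d2 anti-GST), signal = 10000×(Em 665/Em 620).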

[1] = molecular target: PI3K-δ (PI3K(p1108/p857) (h)) (Homo sapiens, UniProt O00329); experiment: Evaluation of inhibitory activity against PI3K-δ (HTRF kinase assay); type: biochemical; details: for inhibition at 0.1 µM: read-out: EXP_VALUE(% Inhibition) PI3K-δ 0.1 μM; for inhibition at 0.01 µM: compound concentration 0.01 μM, read-out: EXP_VALUE(% Inhibition) PI3K-δ 0.01 μM
Chain of PI3K-δ (PI3K(p1108/p857) (h)) (O00329 whole entry, the tested form may be a part): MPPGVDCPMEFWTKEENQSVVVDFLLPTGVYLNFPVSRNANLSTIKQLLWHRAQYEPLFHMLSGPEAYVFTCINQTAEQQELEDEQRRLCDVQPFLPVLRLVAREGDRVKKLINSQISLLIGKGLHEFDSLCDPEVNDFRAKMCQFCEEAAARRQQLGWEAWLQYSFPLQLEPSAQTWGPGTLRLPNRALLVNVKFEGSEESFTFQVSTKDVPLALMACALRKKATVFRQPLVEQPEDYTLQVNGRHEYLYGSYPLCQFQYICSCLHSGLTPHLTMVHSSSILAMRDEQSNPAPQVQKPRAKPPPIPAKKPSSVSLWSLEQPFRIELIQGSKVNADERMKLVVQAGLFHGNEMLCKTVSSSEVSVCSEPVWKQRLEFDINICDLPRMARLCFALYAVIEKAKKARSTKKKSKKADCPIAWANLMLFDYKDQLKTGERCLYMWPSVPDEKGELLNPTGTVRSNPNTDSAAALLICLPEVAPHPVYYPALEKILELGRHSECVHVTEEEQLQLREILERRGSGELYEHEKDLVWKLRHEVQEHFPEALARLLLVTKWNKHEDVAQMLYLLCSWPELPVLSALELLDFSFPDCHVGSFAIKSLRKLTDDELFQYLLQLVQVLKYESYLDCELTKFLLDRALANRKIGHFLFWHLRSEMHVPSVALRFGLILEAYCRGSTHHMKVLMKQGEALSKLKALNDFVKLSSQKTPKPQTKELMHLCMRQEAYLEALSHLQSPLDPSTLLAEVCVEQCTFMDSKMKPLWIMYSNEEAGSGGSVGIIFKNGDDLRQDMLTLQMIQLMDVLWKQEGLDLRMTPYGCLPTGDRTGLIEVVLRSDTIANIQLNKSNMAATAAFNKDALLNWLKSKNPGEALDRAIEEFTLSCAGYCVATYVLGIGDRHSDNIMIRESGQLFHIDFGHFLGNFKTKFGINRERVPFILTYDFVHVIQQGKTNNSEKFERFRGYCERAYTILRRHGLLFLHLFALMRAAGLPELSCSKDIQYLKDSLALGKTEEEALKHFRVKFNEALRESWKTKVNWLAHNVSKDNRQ
Chain of PI3K-δ (PI3K(p1108/p857) (h)) (P27986 whole entry partner, the tested form may be a part): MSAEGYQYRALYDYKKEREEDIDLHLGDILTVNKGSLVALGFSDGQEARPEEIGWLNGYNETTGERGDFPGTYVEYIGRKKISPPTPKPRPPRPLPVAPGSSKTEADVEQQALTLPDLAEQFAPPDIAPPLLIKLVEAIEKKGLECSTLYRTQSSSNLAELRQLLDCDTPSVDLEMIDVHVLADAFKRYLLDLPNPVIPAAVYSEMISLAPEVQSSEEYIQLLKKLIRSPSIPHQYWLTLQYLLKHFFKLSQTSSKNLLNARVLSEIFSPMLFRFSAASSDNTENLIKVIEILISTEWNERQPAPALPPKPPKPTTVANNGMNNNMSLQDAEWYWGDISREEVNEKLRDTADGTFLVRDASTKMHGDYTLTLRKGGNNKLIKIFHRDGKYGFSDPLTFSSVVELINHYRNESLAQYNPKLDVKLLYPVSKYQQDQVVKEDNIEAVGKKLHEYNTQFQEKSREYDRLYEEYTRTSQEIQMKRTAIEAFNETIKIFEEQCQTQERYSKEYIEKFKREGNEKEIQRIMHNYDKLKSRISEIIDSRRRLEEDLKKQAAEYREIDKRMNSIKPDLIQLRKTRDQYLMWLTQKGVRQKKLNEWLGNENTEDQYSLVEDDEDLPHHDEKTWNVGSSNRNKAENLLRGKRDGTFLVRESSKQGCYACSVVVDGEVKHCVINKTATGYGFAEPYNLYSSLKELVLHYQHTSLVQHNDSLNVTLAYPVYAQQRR
Method in brief: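 HTRF read-out (665/620 nm ratio ×10000) used Eu-labelled anti-GST, GST-tagged GRP1 PH domain and streptavidin-allophycocyanin after EDTA/PIP3 stop.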

inhibition at 0.1 µM (DNA-PK(h); compound at 0.1 μM) | inhibition at 0.1 µM ([1]; compound at 0.1 μM) | inhibition at 0.01 µM (DNA-PK(h)) | inhibition at 0.01 µM [1] | inhibition at 0.1 µM (DNA-PK(h); compound concentration 0.1 μM) | inhibition at 0.1 µM ([1]; compound concentration 0.1 μM) | SMILES
 |  | 45% | 68% |  |  | COc1ncc(-c2cccc3c(Cl)c([C@H](C)Nc4ncnc5[nH]ccc(=O)c45)n(-c4ccccc4)c(=O)c23)cc1C#N [Example 229, (S)-5-(4-chloro-1-oxo-3-(1-((5-oxo-5,8-dihydropyrido[2,3-d]pyrimidin-4-yl)amino)ethyl)-2-phenyl-1,2-dihydroisoquinolin-8-yl)-2-methoxynicotinonitrile]
10% | 79% |  |  |  |  | COc1ncc(-c2cccc3cc([C@H](C)Nc4ncnc5[nH]ccc(=O)c45)n(-c4ccccc4)c(=O)c23)cn1 [Example 383, (S)-4-((1-(8-(2-methoxypyrimidin-5-yl)-1-oxo-2-phenyl-1,2-dihydroisoquinolin-3-yl)ethyl)amino)pyrido[2,3-d]pyrimidin-5(8H)-one]
78% | 70% |  |  |  |  | CCOC(C)(C)c1ncc(-c2cccc3c(Cl)c([C@H](C)Nc4ncnc5[nH]ccc(=O)c45)n(-c4ccccc4)c(=O)c23)cn1 [Example 404, (S)-4-((1-(4-chloro-8-(2-(2-ethoxypropan-2-yl)pyrimidin-5-yl)-1-oxo-2-phenyl-1,2-dihydroisoquinolin-3-yl)ethyl)amino)pyrido[2,3-d]pyrimidin-5(8H)-one]
 |  | 11% | 105% |  |  | C[C@H](Nc1ncnc2[nH]ccc(=O)c12)c1c(Cl)c2cccc(C(=O)NCc3ccco3)c2c(=O)n1-c1ccccc1 [Example 279, (S)-4-chloro-N-(furan-2-ylmethyl)-1-oxo-3-(1-((5-oxo-5,8-dihydropyrido[2,3-d]pyrimidin-4-yl)amino)ethyl)-2-phenyl-1,2-dihydroisoquinoline-8-carboxamide]
 |  | 81% | 44% |  |  | CNC(=O)c1ccc(-c2cccc3c(Cl)c([C@H](C)Nc4ncnc5[nH]ccc(=O)c45)n(-c4ccccc4)c(=O)c23)cc1 [Example 167, (S)-4-(4-chloro-1-oxo-3-(1-((5-oxo-5,8-dihydropyrido[2,3-d]pyrimidin-4-yl)amino)ethyl)-2-phenyl-1,2-dihydroisoquinolin-8-yl)-N-methylbenzamide]
32% | 8% |  |  |  |  | CCSc1cccc2c(Cl)c([C@H](C)Nc3ncnc4[nH]ccc(=O)c34)n(-c3ccccc3)c(=O)c12 [Example 434, (S)-4-((1-(4-chloro-8-(ethylthio)-1-oxo-2-phenyl-1,2-dihydroisoquinolin-3-yl)ethyl)amino)pyrido[2,3-d]pyrimidin-5(8H)-one]
 |  | 102% | 85% |  |  | COc1ccc(-c2cccc3c(Cl)c([C@H](C)Nc4ncnc5[nH]ccc(=O)c45)n(-c4ccccc4)c(=O)c23)cc1F [Example 191, (S)-4-((1-(4-chloro-8-(3-fluoro-4-methoxyphenyl)-1-oxo-2-phenyl-1,2-dihydroisoquinolin-3-yl)ethyl)amino)pyrido[2,3-d]pyrimidin-5(8H)-one]
 |  | 80% | 97% |  |  | CC(O)c1ccc(-c2cccc3c(Cl)c([C@H](C)Nc4ncnc5[nH]ccc(=O)c45)n(-c4ccccc4)c(=O)c23)cc1 (stereo partly drawn) [Example 57, 4-(((1S)-1-(4-chloro-8-(4-(1-hydroxyethyl)phenyl)-1-oxo-2-phenyl-1,2-dihydroisoquinolin-3-yl)ethyl)amino)pyrido[2,3-d]pyrimidin-5(8H)-one]
 |  | 19% | 28% |  |  | COc1cc(-c2cccc3c(Cl)c([C@H](C)Nc4ncnc5[nH]ccc(=O)c45)n(-c4ccccc4)c(=O)c23)ccc1OC(F)(F)F [Example 159, (S)-4-((1-(4-chloro-8-(3-methoxy-4-(trifluoromethoxy)phenyl)-1-oxo-2-phenyl-1,2-dihydroisoquinolin-3-yl)ethyl)amino)pyrido[2,3-d]pyrimidin-5(8H)-one]
 |  | 86% | 82% | 99% | 89% | C[C@H](Nc1ncnc2[nH]ccc(=O)c12)c1c(Cl)c2cccc(-c3ccco3)c2c(=O)n1-c1ccccc1 [Example 117, (S)-4-((1-(4-chloro-8-(furan-2-yl)-1-oxo-2-phenyl-1,2-dihydroisoquinolin-3-yl)ethyl)amino)pyrido[2,3-d]pyrimidin-5(8H)-one]
 |  | 82% | 79% | 99% | 86% | C[C@H](Nc1ncnc2[nH]ccc(=O)c12)c1c(Cl)c2cccc(-c3ccc(N4CCOCC4)cc3)c2c(=O)n1-c1ccccc1 [Example 75, (S)-4-((1-(4-chloro-8-(4-morpholinophenyl)-1-oxo-2-phenyl-1,2-dihydroisoquinolin-3-yl)ethyl)amino)pyrido[2,3-d]pyrimidin-5(8H)-one]
 |  | 67% | 58% |  |  | C[C@H](Nc1ncnc2[nH]ccc(=O)c12)c1c(Cl)c2cccc(-c3cnc(C4CC4)nc3)c2c(=O)n1-c1ccccc1 [Example 168, (S)-4-((1-(4-chloro-8-(2-cyclopropylpyrimidin-5-yl)-1-oxo-2-phenyl-1,2-dihydroisoquinolin-3-yl)ethyl)amino)pyrido[2,3-d]pyrimidin-5(8H)-one]
 |  | -1% | 8% |  |  | C[C@H](Nc1ncnc2[nH]ccc(=O)c12)c1c(Cl)c2cccc(Nc3ccccc3)c2c(=O)n1-c1ccccc1 [Example 343, (S)-4-((1-(4-chloro-1-oxo-2-phenyl-8-(phenylamino)-1,2-dihydroisoquinolin-3-yl)ethyl)amino)pyrido[2,3-d]pyrimidin-5(8H)-one]

Second part, the compound before the results:

SMILES | inhibition at 0.1 µM (DNA-PK(h); compound at 0.1 μM) | inhibition at 0.1 µM ([1]; compound at 0.1 μM) | inhibition at 0.01 µM (DNA-PK(h)) | inhibition at 0.01 µM [1] | inhibition at 0.1 µM (DNA-PK(h); compound concentration 0.1 μM) | inhibition at 0.1 µM ([1]; compound concentration 0.1 μM)
C[C@H](Nc1ncnc2[nH]ccc(=O)c12)c1c(Cl)c2cccc(-c3cnc(-c4cccs4)nc3)c2c(=O)n1-c1ccccc1 [Example 377, (S)-4-((1-(4-chloro-1-oxo-2-phenyl-8-(2-(thiophen-2-yl)pyrimidin-5-yl)-1,2-dihydroisoquinolin-3-yl)ethyl)amino)pyrido[2,3-d]pyrimidin-5(8H)-one] | 30% | 59% |  |  |  | 
C[C@H](Nc1ncnc2[nH]ccc(=O)c12)c1c(Cl)c2cccc(-c3ccc(-c4ccncc4)cc3)c2c(=O)n1-c1ccccc1 [Example 105, (S)-4-((1-(4-chloro-1-oxo-2-phenyl-8-(4-(pyridin-4-yl)phenyl)-1,2-dihydroisoquinolin-3-yl)ethyl)amino)pyrido[2,3-d]pyrimidin-5(8H)-one] |  |  | 12% | 75% | 75% | 103%
Cc1ccc(Oc2cccc3c(Cl)c([C@H](C)Nc4ncnc5[nH]ccc(=O)c45)n(-c4ccccc4)c(=O)c23)cc1 [Example 367, (S)-4-((1-(4-chloro-1-oxo-2-phenyl-8-(p-tolyloxy)-1,2-dihydroisoquinolin-3-yl)ethyl)amino)pyrido[2,3-d]pyrimidin-5(8H)-one] |  |  | 21% | 51% | 67% | 93%
Cc1cc(-c2cccc3c(Cl)c([C@H](C)Nc4ncnc5[nH]ccc(=O)c45)n(-c4ccccc4)c(=O)c23)n[nH]1 [Example 234, (S)-4-((1-(4-chloro-8-(5-methyl-1H-pyrazol-3-yl)-1-oxo-2-phenyl-1,2-dihydroisoquinolin-3-yl)ethyl)amino)pyrido[2,3-d]pyrimidin-5(8H)-one] |  |  | 50% | 85% |  | 
C[C@H](Nc1ncnc2[nH]ccc(=O)c12)c1c(Cl)c2cccc(-c3ccc4nccn4c3)c2c(=O)n1-c1ccccc1 [Example 113, (S)-4-((1-(4-chloro-8-(imidazo[1,2-a]pyridin-6-yl)-1-oxo-2-phenyl-1,2-dihydroisoquinolin-3-yl)ethyl)amino)pyrido[2,3-d]pyrimidin-5(8H)-one] |  |  | 79% | 82% | 98% | 93%
C[C@H](Nc1ncnc2[nH]ccc(=O)c12)c1c(Cl)c2cccc(-c3cnc(N4CCN(C)CC4)cn3)c2c(=O)n1-c1ccccc1 [Example 211, (S)-4-((1-(4-chloro-8-(5-(4-methylpiperazin-1-yl)pyrazin-2-yl)-1-oxo-2-phenyl-1,2-dihydroisoquinolin-3-yl)ethyl)amino)pyrido[2,3-d]pyrimidin-5(8H)-one] |  |  | 55% | 80% |  | 
C[C@H](Nc1ncnc2[nH]ccc(=O)c12)c1c(Cl)c2cccc(-c3cnc(N4CCCC4)nc3)c2c(=O)n1-c1ccccc1 [Example 222, (S)-4-((1-(4-chloro-1-oxo-2-phenyl-8-(2-(pyrrolidin-1-yl)pyrimidin-5-yl)-1,2-dihydroisoquinolin-3-yl)ethyl)amino)pyrido[2,3-d]pyrimidin-5(8H)-one] |  |  | 55% | 75% |  | 
C[C@H](Nc1ncnc2[nH]ccc(=O)c12)c1c(Cl)c2cccc(COCC(C)(C)CO)c2c(=O)n1-c1ccccc1 [Example 359, (S)-4-((1-(4-chloro-8-((3-hydroxy-2,2-dimethylpropoxy)methyl)-1-oxo-2-phenyl-1,2-dihydroisoquinolin-3-yl)ethyl)amino)pyrido[2,3-d]pyrimidin-5(8H)-one] |  |  | 8% | 46% |  | 
